Assays:
clinical = settings: female, human, in vivo
Procedure: (§1) Specifically, myoinositol plasma levels were tested in these non-responding patients; a mean value of 17±3.5 μmol/l myoinositol was observed. Successively, a treatment with 2 g myoinositol, 0.2 mg folic acid and 50 mg alpha lactalbumin was performed in doses of two powder sachets per day before meals during the next three months. Of the 7 myoinositol resistant patients after combined treatment with myoinositol and alpha lactalbumin, 5 of the original non-responders (i.e. 71% of the original non-responders) ovulated. […]

[1] = Pharmacokinetic evaluation in healthy subjects: myoinositol plus alpha lactalbumin (plasma myoinositol by GCMS); type: in vivo; settings: both sexes, human, single oral dose in powder, 6 g myoinositol alone or plus 150 mg alpha lactalbumin, 15 healthy volunteers, mean
Description: The present example describes a pharmacokinetic study combining the oral administration of myoinositol and alpha lactalbumin in healthy subjects. The study aims to determine whether the combination of myoinositol and alpha lactalbumin is able to increase the plasma level of myoinositol above that observed after administering myoinositol alone. The study involved 15 healthy volunteers, 6 men and 9 women. […] Subjects received orally 6 g of myoinositol in powder form and then, after a washout period of 7 days, 6 g of myoinositol and 150 mg alpha lactalbumin, also in powder form.

[2] = tested on: women affected by idiopathic infertility; experiment: Clinical evaluation on women affected by idiopathic infertility: biochemical pregnancy (beta hCG assay); type: in vivo, human; settings: first phase: 40 women; 2 g myoinositol + 0.2 mg folic acid (Inofolic), two sachets per day, 3 months
Description: The present study aims to develop an efficacious therapy in women suffering from idiopathic infertility based on the improved absorption of inositol, e.g. myoinositol, when administered in combination with alpha lactalbumin. Specifically, while treatment of idiopathic infertility with myoinositol alone correlates to an improvement in the disease in a significant number of women, there remain women who still fail to respond to treatment with myoinositol alone. The present inventors thus sought to determine whether the higher level of myoinositol absorption observed when administering myoinositol together with alpha lactalbumin might allow successful treatment of idiopathic infertility patients who had previously not responded to treatment with myoinositol alone. If so, then the treatment of idiopathic infertility with inositol in combination with alpha lactalbumin, e.g. myoinositol in combination with alpha lactalbumin, would represent a significant therapeutic advance, allowing treatment of idiopathic infertility in previously recalcitrant cases, thereby substantially extending the therapeutic benefit of inositol, e.g. myoinositol, in treating idiopathic infertility. The present study included 40 women affected by idiopathic infertility. Inclusion criteria were: women affected by idiopathic infertility as defined below, aged 30-40 years, who were not receiving any therapy with drugs which potentially influence ovulation. Patients were given a thorough evaluation and were tested for a number of diseases, as described in the following. Testing positive for any of these diseases tested sufficed to exclude a patient as being “idiopathically infertile”. Specifically, patients were excluded from this trial in the event they were diagnosed positive for any of: hyperprolactinemia, hypothyroidism, Cushing's syndrome, adrenal hyperplasia, obesity, polycystic ovary syndrome (PCOS) or anovulation. The person skilled in the art can routinely diagnose each of the above mentioned conditions. For example, hyperprolactinemia can be diagnosed when serum prolactin levels are found to be over 20 μg/L, as e.g. described in Serri et al., CMAJ, 2003, 169(6): 575-581. Hypothyroidism can be diagnosed when the serum TSH level is found to be over 4.5 mIU/L (Garber et al., CLINICAL PRACTICE GUIDELINES FOR HYPOTHYROIDISM IN ADULTS: COSPONSORED BY THE AMERICAN ASSOCIATION OF CLINICAL ENDOCRINOLOGISTS AND THE AMERICAN THYROID ASSOCIATION; Endocrine Practice vol. 18 No. 6, 2012). Cushing's syndrome can be diagnosed according to Nieman et al., J. Clin. Endocrinol. […] The primary readout was the achievement of biochemical pregnancy as assessed using an assay (HCG Combo Card, Shanghai Chemtron Biotech Co., Ltd., catalog.no. 6011C31-4) for beta human chorionic gonadotropin (beta hCG). […]

anovulatory PCOS women = settings: 4 g/day myoinositol; cited from earlier work
[3] = tested on: anovulatory PCOS patients; experiment: Clinical evaluation on PCOS women: ovulation assessed by ultrasound examination; type: in vivo, human; settings: two sachets per day
Description: The present study aims to develop an efficacious therapy in women suffering from PCOS based on the improved absorption of inositol, e.g. myoinositol, when administered in combination with alpha lactalbumin. Specifically, while treatment of PCOS with myoinositol alone correlates to an improvement in the disease in a significant number of women, there remain women who still fail to respond to treatment with myoinositol alone. The present inventors thus sought to determine whether the higher level of myoinositol absorption observed when administering myoinositol together with alpha lactalbumin might allow successful treatment of PCOS patients who had previously not responded to treatment with myoinositol alone. If so, then the treatment of PCOS with inositol in combination with alpha lactalbumin, e.g. myoinositol in combination with alpha lactalbumin, would represent a significant therapeutic advance, allowing treatment of PCOS in previously recalcitrant cases, thereby substantially extending the therapeutic benefit of inositol, e.g. myoinositol, in treating PCOS.
The present study included 20 anovulatory PCOS patients.
Inclusion criteria were: age 20-35 years; PCOS according to Rotterdam ESHRE-ASRM consensus workshop group; anovulation and infertility >1 year. Indeed, according to Rotterdam criteria, PCOS was diagnosed performed if 2 out of the 3 following factors were fulfilled: a) oligo- or anovulation, b) clinical and/or biochemical signs of hyperandrogenism, and c) polycystic ovaries.
Patients were excluded in the event of other conditions causing ovulatory dysfunction, such as hyperprolactinemia or hypothyroidism, or androgen excess, such as adrenal hyperplasia or Cushing's syndrome, and also in the case of intake of other drugs that can potentially influence ovulation.
All the patients were given myoinositol (Inofolic®, Lo.Li. Pharma, Rome, Italy), containing 2 g myoinositol and 0.2 mg folic acid in dose of two sachets per day before meals, in order to induce ovulation.
Ovulation was assessed using ultrasound examination on days 12, 14 and 20 of the cycle. Treatment was performed for three months.
These 7 non-responders then became the subject of a second phase of the study, in which they received treatment with myoinositol in combination with alpha lactalbumin.
as §1

[4] = first phase: 20 anovulatory PCOS patients, 2 g myoinositol + 0.2 mg folic acid (Inofolic), three months

- concentration at 3 months (clinical): 17 ± 3.5 µM
- myoinositol plasma level in patients who responded positively (clinical): 38 µmol/L
- MYOINOSITOL PLASMA LEVELS T3 mean (±SD) (clinical; 3 months): 17 (3.5) μmol/l
- Cmax [1]: 98 µM
- Tmax [1]: 3 h
SMILES: O[C@H]1[C@H](O)[C@@H](O)[C@H](O)[C@@H](O)[C@H]1O [myoinositol]
- Achieving biochemical pregnancy % [2]: 52.5%
- Achieving biochemical pregnancy (number) [2]: 21
- Not achieving biochemical pregnancy % [2]: 47.5%
- Not achieving biochemical pregnancy (number) [2]: 19
- non-responders (patients who did not ovulate after treatment) (anovulatory PCOS women): 38.3%
- OVULATION T3 (number of patients) ([3]; 7 PCOS patients non-responsive to myoinositol, after 3 months of the treatment, combination: 2 g myoinositol, 0.2 mg folic acid, 50 mg alpha lactalbumin): 0
- women resistant, did not ovulate (%) [3, 4]: 35%
- women resistant, did not ovulate (number of 20) [3, 4]: 7
- women who ovulated (%) [3, 4]: 65%
- women who ovulated (number of 20) [3, 4]: 13
